Measurements reported in patent US12391687B2, “Five-and-six-membered heterocyclic compound and use thereof as protein receptor kinase inhibitor” (SHANGHAI ENNOVABIO PHARMACEUTICALS CO., LTD., priority 2018, dated 2025).

How the values were obtained:
Recombinant human TRKA = Recombinant human TRKA (Homo sapiens (Human), UniProt P04629); assay: In vitro activity test on TRKA kinase (HTRF kinEASE TK); assay type: biochemical; settings: 14.68 μM ATP, 40 min, room temperature
Experimental: (§1) Recombinant human TRKA, TRKB, TRKC proteins were purchased from Carna Biosciences. HTRF kinEASE TK kit was purchased from Cisbio Bioassays. Synergy Neo 2 of Biotek was used to read the plate.
(§2) The tested compounds were subjected to 3-fold serial dilution to reach a final concentration of 1 μM to 0.05 nM (10 concentrations), duplicates for each concentration; and the DMSO concentration in the detection reaction was 1%.
0.2 ng/μL TRKA protein kinase, 1 μM TK Substrate-biotin polypeptide substrate, 14.68 μM ATP, 1×enzymatic buffer, 5 mM MgCl2, and 1 mM DTT. The assay plate was White Proxiplate384-Plus plate (PerkinElmer), and the reaction was incubated at room temperature for 40 min, and the assay volume was 10 μL.
(§3) 10 μL of detection reagent (containing 0.125 μM SA-XL665 and 5 μL 1×TK-Antibody) was added to the plate and incubated overnight at room temperature. Synergy Neo 2 was used to read the plate.
(§4) The 665/620 Ratio was converted according to the following formula into inhibition rate (%)=(1−Ratiotest/Ratiomax)×100%. Ratiomax was the value of positive controls without tested compound, and Ratiotest was the value of each concentration of different compounds. IC50 (nM) data was obtained by 4 parameter curve fitting (see Table 1).

Recombinant human TRKB = Recombinant human TRKB (Homo sapiens (Human), UniProt Q16620); assay: In vitro activity test on TRKB kinase (HTRF kinEASE TK); assay type: biochemical; settings: 4.77 μM ATP, 50 min, room temperature
Experimental: as §1, §2
(§5) 0.037 ng/μL TRKB protein kinase, 1 μM TK Substrate-biotin polypeptide substrate, 4.77 μM ATP, 1× enzymatic buffer, 5 mM MgCl2, 1 mM MnCl2 and 1 mM DTT. The assay plate was White Proxiplate 384-Plus plate (PerkinElmer), the reaction was incubated at room temperature for 50 min, and the assay volume was 10 μL.
as §3, §4

Recombinant human TRKC = Recombinant human TRKC (Homo sapiens (Human), UniProt Q16288); assay: In vitro activity test on TRKC kinase (HTRF kinEASE TK); assay type: biochemical; settings: 25.64 μM ATP, 40 min, room temperature
Experimental: as §1, §2
as §5, with “ng/μL TRKC” for “ng/μL TRKB”, “substrate, 25.64” for “substrate, 4.77”, “MgCl2,” for “MgCl2, 1 mM MnCl2”, “The detection” for “The assay”, “for 40” for “for 50”
as §3, §4

KM12-LUC cells = assay: KM12-LUC cell proliferation experiment (CellTiter-Glo); assay type: cell-based; settings: human colon cancer cell line with TPM3-NTRK1 fusion, 72 hours
Experimental: Human colon cancer cell line KM12-LUC (LUC, stably expressing Luciferase) expressing TPM3-NTRK1 fusion gene was used to evaluate cellular activity of the compounds. The TRK fusion gene in KM12-LUC cells makes the sustained activation of TRK and the downstream signaling pathways associated with cell proliferation such as MAPK-ERK, PI3K-AKT, etc independent of the stimulation of extracellular growth factor. […] The method was as follows: On the first day, the cells were seeded into 384-well plates at 2000 cells/well; on the second day, different concentrations of test compounds were added; and on the 5th day, CellTiter-Glo (Promega) was added to detect cell viability, and the cell proliferation inhibition rate at 72 hours was calculated. Statistical analysis was carried out by PRISM5 and the IC50 of the test compounds was calculated.

[1] = target: recombinant human TRKA (G595R) (Homo sapiens (Human), UniProt P04629, G595R); assay: In vitro activity test on mutant TRKA (G595R) (HTRF kinEASE TK); assay type: biochemical; settings: 4.5 μM ATP, 30 min, room temperature; read-out: TRKA (G595R) IC 50
Experimental: The recombinant human TRKA (G595R), TRKA (G667C) and TRKC (G623R) proteins were purchased from SignalChem. HTRF kinEASE TK kit was purchased from Cisbio Bioassays. Synergy Neo 2 of Biotek was used to read the plate.
The tested compounds were subjected to 4-fold serial dilution to reach a final concentration of 1 μM to 0.004 nM (10 concentrates), duplicates for each concentration; and the final concentration of DMSO in the reaction was 1%.
0.12 ng/μL TRKA (G595R) kinase, 1 μM TK Substrate-biotin polypeptide substrate, 4.5 μM ATP, 1× enzymatic buffer, 5 mM MgCl2, and 1 mM DTT. The assay plate was White Proxiplate384-Plus plate (PerkinElmer), and the reaction was incubated at room temperature for 30 min, and the assay volume was 10 μL.
10 μL of detection reagent (containing 0.125 μM SA-XL665 and 5 μL 1×TK-Antibody) was added to the plate and incubated overnight at room temperature, and Synergy Neo 2 was used to read the plate.
The value of 665/620 Ratio minus the value of negative control wells without enzyme, then the obtained value was converted according to the following formula into inhibition rate (%)=(1−Ratiotest/Ratiomax)×100%. Ratiomax was the value of positive controls without tested compound, and Ratiotest was the value of each concentration of different compounds. IC50 (nM) data was obtained by 4 parameter curve fitting (see Table 3).

Sequence of Recombinant human TRKC (Q16288 32-839): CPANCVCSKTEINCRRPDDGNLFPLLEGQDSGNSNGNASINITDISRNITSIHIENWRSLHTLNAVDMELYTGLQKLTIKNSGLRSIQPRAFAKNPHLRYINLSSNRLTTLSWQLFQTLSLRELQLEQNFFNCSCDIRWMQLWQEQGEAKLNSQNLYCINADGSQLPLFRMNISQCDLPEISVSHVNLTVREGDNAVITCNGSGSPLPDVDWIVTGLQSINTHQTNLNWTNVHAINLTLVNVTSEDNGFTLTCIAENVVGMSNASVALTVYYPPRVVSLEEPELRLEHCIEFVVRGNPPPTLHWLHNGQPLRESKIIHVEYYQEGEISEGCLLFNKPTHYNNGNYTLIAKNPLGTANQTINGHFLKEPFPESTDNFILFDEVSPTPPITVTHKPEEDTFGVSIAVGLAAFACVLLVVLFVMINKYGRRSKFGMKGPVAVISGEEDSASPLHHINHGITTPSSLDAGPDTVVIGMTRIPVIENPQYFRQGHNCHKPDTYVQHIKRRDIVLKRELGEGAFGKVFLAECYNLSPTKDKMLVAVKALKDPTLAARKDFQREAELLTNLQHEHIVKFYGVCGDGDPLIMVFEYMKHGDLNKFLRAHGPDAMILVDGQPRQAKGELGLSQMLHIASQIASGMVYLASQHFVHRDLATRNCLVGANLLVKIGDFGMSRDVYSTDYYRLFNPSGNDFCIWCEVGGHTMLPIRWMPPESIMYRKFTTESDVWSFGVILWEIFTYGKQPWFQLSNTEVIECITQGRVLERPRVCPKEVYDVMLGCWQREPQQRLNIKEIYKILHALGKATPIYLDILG
Sequence of Recombinant human TRKA (P04629 33-796): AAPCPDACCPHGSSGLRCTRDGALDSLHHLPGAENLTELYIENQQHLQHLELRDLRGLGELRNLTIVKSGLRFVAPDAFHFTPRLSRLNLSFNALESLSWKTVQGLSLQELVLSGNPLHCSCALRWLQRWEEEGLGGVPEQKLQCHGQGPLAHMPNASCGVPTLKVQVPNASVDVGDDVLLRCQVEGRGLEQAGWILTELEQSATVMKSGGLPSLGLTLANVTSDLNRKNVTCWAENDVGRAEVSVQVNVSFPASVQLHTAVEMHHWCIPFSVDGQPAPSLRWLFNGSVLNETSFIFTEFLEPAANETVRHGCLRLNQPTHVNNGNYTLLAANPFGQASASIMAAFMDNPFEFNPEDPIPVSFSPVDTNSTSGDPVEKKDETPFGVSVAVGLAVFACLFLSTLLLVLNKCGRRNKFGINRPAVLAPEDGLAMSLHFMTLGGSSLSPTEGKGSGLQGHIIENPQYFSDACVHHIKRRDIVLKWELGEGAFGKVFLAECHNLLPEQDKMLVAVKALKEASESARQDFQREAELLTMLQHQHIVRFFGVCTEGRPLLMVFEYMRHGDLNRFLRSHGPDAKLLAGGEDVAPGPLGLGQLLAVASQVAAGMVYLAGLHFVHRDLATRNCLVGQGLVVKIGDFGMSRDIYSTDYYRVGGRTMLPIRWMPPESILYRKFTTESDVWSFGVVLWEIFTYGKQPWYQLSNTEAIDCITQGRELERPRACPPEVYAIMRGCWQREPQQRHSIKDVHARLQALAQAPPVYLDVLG
Sequence of Recombinant human TRKB (Q16620 32-822): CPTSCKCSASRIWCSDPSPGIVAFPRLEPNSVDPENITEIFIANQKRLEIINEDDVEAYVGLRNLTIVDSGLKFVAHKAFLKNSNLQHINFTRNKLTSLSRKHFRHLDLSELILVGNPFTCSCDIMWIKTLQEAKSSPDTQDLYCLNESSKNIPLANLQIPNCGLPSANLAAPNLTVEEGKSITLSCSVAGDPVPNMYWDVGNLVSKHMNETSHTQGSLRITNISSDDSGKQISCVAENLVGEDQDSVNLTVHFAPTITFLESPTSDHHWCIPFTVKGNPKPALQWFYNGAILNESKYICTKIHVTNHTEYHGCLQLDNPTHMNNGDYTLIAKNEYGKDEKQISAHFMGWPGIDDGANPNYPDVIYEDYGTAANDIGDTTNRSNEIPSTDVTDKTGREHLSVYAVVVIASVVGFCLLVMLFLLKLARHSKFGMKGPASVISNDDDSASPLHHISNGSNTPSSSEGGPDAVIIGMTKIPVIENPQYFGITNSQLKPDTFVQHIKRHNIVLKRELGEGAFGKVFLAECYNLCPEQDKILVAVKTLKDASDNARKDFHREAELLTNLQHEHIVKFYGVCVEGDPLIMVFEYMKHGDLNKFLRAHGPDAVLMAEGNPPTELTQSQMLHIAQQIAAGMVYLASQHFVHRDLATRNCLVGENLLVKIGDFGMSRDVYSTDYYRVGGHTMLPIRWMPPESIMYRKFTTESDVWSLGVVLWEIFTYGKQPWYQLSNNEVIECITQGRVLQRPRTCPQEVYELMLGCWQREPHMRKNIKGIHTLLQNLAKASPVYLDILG
Sequence of recombinant human TRKA (G595R) (P04629 33-796 G595R): as the sequence (P04629 33-796) above, with G563R counted along it

| SMILES | IC50 (Recombinant human TRKA) | IC50 (Recombinant human TRKB) | IC50 (Recombinant human TRKC) | IC50 [1] | IC50 (KM12-LUC cells) |
| --- | --- | --- | --- | --- | --- |
| Fc1ccc(F)c([C@H]2C[C@H](F)CN2c2n[nH]c3ncc(-c4ccn(CC(F)F)n4)cc23)c1 [Example 36, 5-(1-(2,2-difluoroethyl)-1H-pyrazol-3-yl)-3-((2R,4S)-2-(2,5-difluorophenyl)-4-fluoropyrrolidin-1-yl)-1H-pyrazolo[3,4-b]pyridine] | < 1 nM | < 1 nM | < 1 nM | < 1 nM | < 10 nM |
| Fc1ccc(F)c([C@H]2C[C@H](F)CN2c2n[nH]c3ncc(-c4cnn(C5CCNCC5)c4)cc23)c1 [Example 22, 3-((2R,4S)-2-(2,5-difluorophenyl)-4-fluoropyrrolidin-1-yl)-5-(1-(piperidin-4-yl)-1H-pyrazol-4-yl)-1H-pyrazolo[3,4-b]pyridine] | < 1 nM | < 1 nM | < 1 nM | < 1 nM | < 10 nM |
| CC(C)(O)Cn1cc(-c2cnc3[nH]nc(N4C[C@@H](F)C[C@@H]4c4cc(F)ccc4F)c3c2)cn1 [Example 32, 1-(4-(3-((2R,4S)-2-(2,5-difluorophenyl)-4-fluoropyrrolidin-1-yl)-1H-pyrazolo[3,4-b]pyridin-5-yl)-1H-pyrazol-1-yl)-2-methylpropan-2-ol] | < 1 nM | < 1 nM | < 1 nM | < 1 nM | < 1 nM |
| CN(C)CCn1cc(-c2cnc3[nH]nc(N4C[C@@H](F)C[C@@H]4c4cc(F)ccc4F)c3c2)cn1 [Example 33, 2-(4-(3-((2R,4S)-2-(2,5-difluorophenyl)-4-fluoropyrrolidin-1-yl)-1H-pyrazolo[3,4-b]pyridin-5-yl)-1H-pyrazol-1-yl)-N,N-dimethylethan-1-amine] | < 1 nM | < 1 nM | < 1 nM | < 1 nM | < 1 nM |
| Fc1ccc(F)c([C@H]2C[C@H](F)CN2c2n[nH]c3ncc(-c4cnn(COCc5ccccc5)c4)cc23)c1 [Example 31, 5-(1-((benzyloxy)methyl)-1H-pyrazol-4-yl)-3-((2R,4S)-2-(2,5-difluorophenyl)-4-fluoropyrrolidin-1-yl)-1H-pyrazolo[3,4-b]pyridine] | < 10 nM | < 1 nM | < 10 nM | < 10 nM |  |
| COC(=O)c1cnc2[nH]nc(N3C[C@@H](F)C[C@@H]3c3cc(F)ccc3F)c2c1 [Example 13, Methyl 3-((2R,4S)-2-(2,5-difluorophenyl)-4-fluoropyrrolidin-1-yl)-1H-pyrazolo[3,4-b]pyridine-5-carboxylate] | < 1 nM | < 1 nM | < 1 nM | < 1 nM |  |
| CC(C)OC(=O)c1cnc2[nH]nc(N3C[C@@H](F)C[C@@H]3c3cc(F)ccc3F)c2c1 [Example 19, isopropyl 3-((2R,4S)-2-(2,5-difluorophenyl)-4-fluoropyrrolidin-1-yl)-1H-pyrazolo[3,4-b]pyridine-5-carboxylate] | < 1 nM | < 1 nM | < 1 nM | < 1 nM |  |
| Cc1cn(CC(F)F)nc1-c1cnc2[nH]nc(N3C[C@@H](F)C[C@@H]3c3cc(F)ccc3F)c2c1 [Example 40, 5-(1-(2,2-difluoroethyl)-4-methyl-1H-pyrazol-3-yl)-3-((2R,4S)-2-(2,5-difluorophenyl)-4-fluoropyrrolidin-1-yl)-1H-pyrazolo[3,4-b]pyridine] | < 1 nM | < 1 nM | < 1 nM | < 10 nM |  |
| CS(=O)(=O)n1cc(-c2cnc3[nH]nc(N4C[C@@H](F)C[C@@H]4c4cc(F)ccc4F)c3c2)cn1 [Example 27, 3-((2R,4S)-2-(2,5-difluorophenyl)-4-fluoropyrrolidin-1-yl)-5-(1-(methylsulfonyl)-1H-pyrazol-4-yl)-1H-pyrazolo[3,4-b]pyridine] | < 1 nM | < 1 nM | < 1 nM | < 1 nM |  |
| Fc1ccc(F)c([C@H]2C[C@H](F)CN2c2n[nH]c3ncc(-c4cnn(C5CCOCC5)c4)cc23)c1 [Example 28, 3-((2R,4S)-2-(2,5-difluorophenyl)-4-fluoropyrrolidin-1-yl)-5-(1-(tetrahydro-2H-pyran-4-yl)-1H-pyrazol-4-yl)-1H-pyrazolo[3,4-b]pyridine] | < 1 nM | < 1 nM | < 1 nM | < 1 nM |  |

Now from value to compound, other results behind:

| IC50 (Recombinant human TRKA) | IC50 (Recombinant human TRKB) | IC50 (Recombinant human TRKC) | IC50 [1] | SMILES | IC50 (KM12-LUC cells) |
| --- | --- | --- | --- | --- | --- |
| < 1 nM | < 1 nM | < 1 nM | < 10 nM | CN1CC(n2cc(-c3cnc4[nH]nc(N5C[C@@H](F)C[C@@H]5c5cc(F)ccc5F)c4c3)cn2)C1 [Example 29, 3-((2R,4S)-2-(2,5-difluorophenyl)-4-fluoropyrrolidin-1-yl)-5-(1-(1-methylazetidin-3-yl)-1H-pyrazol-4-yl)-1H-pyrazolo[3,4-b]pyridine] | < 10 nM |
| < 1 nM | < 1 nM | < 1 nM | < 1 nM | COCc1nnc(-c2cnc3[nH]nc(N4C[C@@H](F)C[C@@H]4c4cc(F)ccc4F)c3c2)o1 [Example 37, 2-(3-((2R,4S)-2-(2,5-difluorophenyl)-4-fluoropyrrolidin-1-yl)-1H-pyrazolo[3,4-b]pyridin-5-yl)-5-(methoxymethyl)-1,3,4-oxadiazole] | < 10 nM |
| < 1 nM | < 1 nM | < 1 nM | < 1 nM | Fc1ccc(F)c([C@H]2C[C@H](F)CN2c2n[nH]c3ncc(-c4cnn([C@H]5CCNC5)c4)cc23)c1 [Example 25, 3-((2R,4S)-2-(2,5-difluorophenyl)-4-fluoropyrrolidin-1-yl)-5-(1-((S)-pyrrolidin-3-yl)-1H-pyrazol-4-yl)-1H-pyrazolo[3,4-b]pyridine] | < 10 nM |
| < 10 nM | < 500 nM | < 100 nM | < 1 nM | Fc1ccc(F)c([C@H]2C[C@H](F)CN2c2n[nH]c3ncc(-c4cnn([C@@H]5CCNC5)c4)cc23)c1 [Example 24, 3-((2R,4S)-2-(2,5-difluorophenyl)-4-fluoropyrrolidin-1-yl)-5-(1-((R)-pyrrolidin-3-yl)-1H-pyrazol-4-yl)-1H-pyrazolo[3,4-b]pyridine] | < 10 nM |
| < 1 nM | < 1 nM | < 1 nM | < 1 nM | Fc1ccc(F)c([C@H]2C[C@H](F)CN2c2n[nH]c3ncc(-c4cnn(CC(F)(F)F)c4)cc23)c1 [Example 35, 3-((2R,4S)-2-(2,5-difluorophenyl)-4-fluoropyrrolidin-1-yl)-5-(1-(2,2,2-trifluoroethyl)-1H-pyrazol-4-yl)-1H-pyrazolo[3,4-b]pyridine] | < 10 nM |
| < 1 nM | < 1 nM | < 1 nM | < 1 nM | Fc1ccc(F)c([C@H]2C[C@H](F)CN2c2n[nH]c3ncc(-c4cn[nH]c4)cc23)c1 [Example 20, 3-((2R,4S)-2-(2,5-difluorophenyl)-4-fluoropyrrolidin-1-yl)-5-(1H-pyrazol-4-yl)-1H-pyrazolo[3,4-b]pyridine] | < 10 nM |
